From patent publication US11370825B2, “Polypeptides, cells, and methods involving engineered CD16” (Regents of the University of Minnesota, priority 2014, dated 2022)

Tests used:
NK92 cells = experiment: Cell surface CD16a levels on transduced NK92 cells after activation, flow cytometry; assay type: cell-based, human
Protocol: FIG. 4. Effects of the engineered S197P mutation on CD16a shedding in NK cells. NK92 cells transduced with empty vector (vector only), CD16a, or CD16a/S197P were treated without (Unstim.) or with PMA (100 ng/ml) for 30 minutes at 37° C. (A), with IL-12 and IL-18 (100 ng/ml and 400 ng/ml, respectively) for 24 hours at 37° C. (B), or with Raji cells and rituximab for 60 minutes at 37° C. (C). Cell surface levels of CD16a were determined by flow cytometry. Isotype-matched negative control antibody staining is indicated by a dotted line. (D) Parent NK92 cells and transduced cells expressing CD16a or CD16a/S197P were treated with Raji cells and rituximab in the presence or absence of the ADAM17 inhibitor BMS566394 (5 μM) for 60 minutes at 37° C. Soluble CD16a levels were determined by ELISA. Each treatment condition was repeated three times and the data are representative of three independent experiments. Bar graphs show mean±SD. Statistical significance is indicated as ***P<0.001. (E) NK92 cells expressing CD16a or CD16a/S197P were stained with the anti-ADAM17 mAbs M220, 623, 633, or an isotype-matched negative control antibody, as indicated. (F) CD56^+CD45^+ NK cells derived from mock-transduced iPSCs (left panel) or iPSCs expressing recombinant CD16a or CD16a/S197P (right panels) were incubated with or without K562 target cells for four hours at 37° C. For all histogram plots, the x-axis=Log 10 fluorescence, the y-axis=cell number, and the data are representative of at least 3 independent experiments.
HEK293 cells (a human embryonic kidney cell line) and NK92 cells (a human NK cell line) (ATCC, Manassas, Va.) were cultured according to the depository's instructions. HEK293 cells were transiently transfected with pcDNA3.1 with or without CD16b, CD16b/S197P, and/or L-selectin using Lipofectamine 2000 (Invitrogen, Carlsbad, Calif.) according to the manufacturer's instructions. […] Construct expression was assessed by EGFP fluorescence and CD16 staining, as determined by flow cytometry. […]

ADAM17 = experiment: Soluble CD16a released from transfected HEK293 cells stably expressing human γ chain, ELISA (shedding); assay type: cell-based; conditions: untreated and PMA-treated HEK293 cells stably expressing human γ chain
Protocol: FIG. 3. Effects of the engineered S197P mutation on CD16a and CD16b shedding. Transfected HEK293 (human embryonic kidney) cells separately expressed CD16b and CD16b/S197P (A) or CD16a and CD16a/S197P (B) at similar levels, as determined by flow cytometry (left panels). The different transfectants were treated with or without PMA (15 ng/ml for 30 minutes at 37° C.) and soluble levels of CD16 in the media supernatant were quantified by ELISA (right panels). Each treatment condition was repeated three times for each experiment and the data are representative of three independent experiments. Bar graphs show mean±SD. Statistical significance is indicated as ***P<0.001. […] Surface levels of L-selectin and CD16b/S197P on transfected and mock-transfected cells were measured using flow cytometry (histogram plots). Transfectants expressing L-selectin or L-selectin and CD16b/S197P were incubated in the presence or absence of PMA for 30 minutes at 37° C., and the mean fluorescence intensity (MFI) of L-selectin staining determined (bar graph). […] For all histogram plots, the x-axis=Log 10 fluorescence and the y-axis=cell number.
HEK293 cells (a human embryonic kidney cell line) and NK92 cells (a human NK cell line) (ATCC, Manassas, Va.) were cultured according to the depository's instructions. […] Construct expression was assessed by EGFP fluorescence and CD16 staining, as determined by flow cytometry. […]

Row | Substance | down-regulation in cell surface expression of CD16 (NK92 cells; IL-12 100 ng/ml and IL-18 400 ng/ml, 24 hours at 37° C.) | down-regulation in cell surface expression of CD16 (NK92 cells; PMA 100 ng/ml, 30 minutes at 37° C.) | down-regulation in cell surface expression of CD16 (NK92 cells; Raji cells treated with rituximab, 60 minutes at 37° C.) | soluble levels of receptor in media supernatant compared to CD16a (ADAM17)
1 | CD16a: Wild-type human IgG Fc receptor CD16a (FcγRIIIa), valine allelic variant, recombinant comparator [reference compound] | appreciable down-regulation | marked down-regulation | induced the down-regulation | –
2 | CD16a/S197P: Human CD16a (FcγRIIIa, SEQ ID NO:1) with serine-197 substituted by proline in the membrane proximal cleavage region; expressed recombinantly in cells | – | – | – | significantly lower levels
